Results as given in patent publication US20150368195A1, “INDOLINE COMPOUNDS FOR TREATMENT AND/OR PREVENTION OF INFLAMMATION DISEASES” (Taipei Medical University, priority 2014, published 2015).
Entries after “also recorded” stand apart in the source; their conditions may differ.

Legend:
RAW264.7 macrophages = assay: M-CSF/RANKL-induced osteoclast formation; type: cell-based, Mouse; conditions: 5 nM MPT0G009 or 50 nM SAHA; M-CSF/RANKL 50 ng/mL, 5 days
Experimental: Cells were then tartrate resistant acid phosphatase (TRAP) stained, and the numbers of TRAP-positive multinuclear cells were counted. […] Images are at ×100 magnification, and the arrows indicate differentiated osteoclasts. (FIG. 6C) RAW264.7 cells were treated as in (FIG. 6B), then incubated with a fluorescein isothiocyanate (FITC)-conjugated anti-CD51/61 antibody and analyzed by flow cytometry. (FIGS. 6D and 6E) RAW264.7 cells (1×10^5) were transfected with 1 μg of pGL4.32[luc2P/NF-κB-RE/Hygro] (FIG. 6D) or pGL4.30[luc2P/NFAT-RE/Hygro] (FIG. 6E) for 24 h and then incubated for 30 min with or without MPT0G009 (5 nM). Then RANKL (50 ng/mL) was added and incubation was continued for an additional 24 h, after which luciferase activity was determined. Results in (FIGS. 6A, 6D, and 6E) are the means±SEM's for three independent experiments. **p<0.01 compared with the indicated controls.
Bone destruction is one characteristic of RA pathogenesis, resulting in joint dysfunction. Differentiation of mouse macrophages osteoclast-like cells can be induced in the presence of M-CSF and RANKL, which has been used as a model to investigate osteoclast differentiation. […] Subsequently, multinucleate tartrate resistant acid phosphatase (TRAP)-positive cells were counted.

CTGF = assay: pro-fibrogenic mediator-induced CTGF production, Western blot; type: cell-based, human; conditions: WI-38 lung fibroblasts
Experimental: Western blot analysis was performed. First, WI-38 lung fibroblasts were incubated with different concentrations of MPT0E028 (0.01, 0.03, 0.1, 0.3, or 1 μM) (FIG. 10A) or MPT0G009 (0.01, 0.03, 0.1, 0.3, or 1 μM) (FIG. 10B) for 30 min before and during incubation for 2 h with TGF-β (10 ng/mL). WI-38 lung fibroblasts were incubated with 1 μM MPT0E028 and MPT0G009 for 30 min and following another incubation for 2 h with 1 U/ml thrombin (FIG. 10C) and 10 nM ET-1 (FIG. 10D). The collagen I production from WI-38 lung fibroblasts stimulated by 10 ng/mL TGF-β for 24 h was inhibited with 1 μM MPT0E028 and MPT0G009 pretreatment (FIG. 10E).
WI-38 cells, a normal human embryonic lung fibroblast cell line, were obtained from American Type Culture Collection (Manassas, Va.). Cells were grown in MEM nutrient mixture, containing 10% FCS, 2 mM L-glutamine, 0.1 mM NEAA, 1 mM sodium pyruvate, 50 U/ml penicillin G, and 100 μg/ml streptomycin, in a humidified 37° C. incubator with 5% CO2 Cells were used between passages 18 and 30 for all experiments. After reaching confluence, cells were seeded onto 6-cm dishes for immunoblotting.
Western blot analyses were performed as described previously (Chen B C, Chang Y S, Kang J C, Hsu M J, Sheu J R, Chen T L, et al. Peptidoglycan induces nuclear factor-kappaB activation and cyclooxygenase-2 expression via Ras, Raf-1, and ERK in RAW 264.7 macrophages. J Biol Chem 2004; 279:20889-97). Briefly, WI-38 lung fibroblasts were cultured in 6-cm dishes. After reaching confluence, cells were pretreated with specific inhibitors (E028 and G009) as indicated for 30 min, and then treated with the vehicle (H2O) or 10 ng/ml TGF-β for 2 h (CTGF assay) or 24 h (collagen I assay). Whole-cell lysates ([…]) were subjected to 12% (CTGF) or 8% (collagen I) SDS-PAGE, and transferred onto a polyvinylidene difluoride membrane which was then incubated in TBST buffer (150 mM NaCl, 20 mM Tris-HCl, and 0.02% Tween 20; pH 7.4) containing 5% BSA. Proteins were visualized by specific primary antibodies and then incubated with HRP-conjugated secondary antibodies. The immunoreactivity was detected using enhanced chemiluminescence (ECL) following the manufacturer's instructions. Quantitative data were obtained using a computing densitometer with scientific imaging systems (Kodak, Rochester, N.Y.).
To determine whether the inhibitory effects of MPT0E028 and MPT0G009 on pro-fibrogenic mediators (TGF-β, thrombin, and ET-1) were related to the modulation of CTGF and Collagen I production, Western blot analysis was performed. First, WI-38 lung fibroblasts were incubated with different concentrations of MPT0E028 (0.01, 0.03, 0.1, 0.3, or 1 μM) (FIG. 10A) or MPT0G009 (0.01, 0.03, 0.1, 0.3, or 1 μM) (FIG. 10B) for 30 min before and during incubation for 2 h with TGF-β (10 ng/mL). […] Furthermore, we examined the effects of MPT0E028 and MPT0G009 on other pro-fibrogenic mediators. As shown in FIGS. 10C and 10D, WI-38 lung fibroblasts were incubated with 1 μM MPT0E028 and MPT0G009 for 30 min and following another incubation for 2 h with 1 U/ml thrombin (FIG. 10C) and 10 nM ET-1 (FIG. 10D).

HDAC1 and HDAC6 = assay: overexpression of HDAC1 and HDAC6 in RAW264.7 macrophages or RA-FLS
Experimental: (TRAP) stained, and the numbers of TRAP-positive multinuclear cells were counted (FIG. 7D) or were incubated with a fluorescein isothiocyanate (FITC)-conjugated anti-CD51/61 antibody and analyzed by flow cytometry (FIG. 7E).

**Q.** With `COc1ccc(S(=O)(=O)N2CCc3cc(C=CC(=O)NO)ccc32)cc1` [Compound 9, 3-[1-(4-methoxybenzenesulfonyl)-2,3-dihydro-1H-indol-5-yl]-N-Hydroxyacrylamide] as the compound, how does the “expression of osteoclast-specific marker CD51/61” value (RAW264.7 macrophages) read?
**A.** Its value is “significantly inhibited”.

**Q.** What about the “formation of M-CSF/RANKL-induced TRAP-positive cells” value (RAW264.7 macrophages) of the same compound?
**A.** The value was “significantly inhibited; also recorded: inhibits”.

**Q.** And the “ET-1-induced CTGF expression” value (CTGF; 1 μM, 10 nM ET-1 2 h)?
**A.** The value was “inhibited”.

**Q.** And the “thrombin-induced CTGF expression” value (CTGF; 1 μM, 1 U/ml thrombin 2 h)?
**A.** Its value is “inhibited”.

**Q.** And the “TGF-β-induced CTGF production” value (CTGF; 0.01-1 μM, TGF-β 10 ng/mL 2 h)?
**A.** Its value is “significantly inhibited”.

**Q.** What about the “effect of HDAC overexpression on inhibition of M-CSF/RANKL-induced osteoclast differentiation and CD51/61 expression” value (HDAC1 and HDAC6; 5 nM MPT0G009, transfected RAW264.7) of the same compound?
**A.** Its value is “significantly reduced”.

**Q.** And the “effect of HDAC overexpression on inhibition of LPS-mediated NO or PGE2 release” value (HDAC1 and HDAC6; 10 μM MPT0G009 or 30 μM SAHA, HDAC1- and HDAC6-coexpressing RAW264.7 or RA-FLS)?
**A.** The value was “significantly reduced the inhibitory effects”.
